Assay results from ChEMBL document CHEMBL5120922, “Discovery, Optimization, and Evaluation of Potent and Selective PI3Kδ-γ Dual Inhibitors for the Treatment of B-cell Malignancies” (J Med Chem, 2022).

Assays:
[1] = target: Phosphatidylinositol 4,5-bisphosphate 3-kinase catalytic subunit gamma isoform (Homo sapiens, UniProt P48736); test: Inhibition of N-terminal His6-tagged recombinant full length human PI3Kgamma expressed in baculovirus infected Sf21 insect cells at 0.1 uM by HTRF assay relative to control
[2] = test system: DOHH-2; test: Antiproliferative activity against human DOHH-2 cells assessed as cell growth inhibition measured after 72 hrs by MTT assay; assay type: functional, cell-based; conditions: DOHH-2, 72 h
[3] = test system: SU-DHL-6; test: Antiproliferative activity against human SU-DHL-6 cells assessed as cell growth inhibition measured after 72 hrs by MTT assay; assay type: functional, cell-based; conditions: SU-DHL-6, 72 h
[4] = test system: SUD4; test: Antiproliferative activity against human SU-DHL-4 cells assessed as cell growth inhibition measured after 72 hrs by MTT assay; assay type: functional, cell-based; conditions: SU-DHL-4, 72 h
[5] = target: T1, Phosphatidylinositol 4,5-bisphosphate 3-kinase catalytic subunit delta isoform (Homo sapiens) (UniProt O00329); test: Inhibition of N-terminal His6-tagged recombinant full length human PI3Kdelta expressed in baculovirus infected Sf21 insect cells at 0.1 uM by HTRF assay relative to control
T1 sequence (whole entry): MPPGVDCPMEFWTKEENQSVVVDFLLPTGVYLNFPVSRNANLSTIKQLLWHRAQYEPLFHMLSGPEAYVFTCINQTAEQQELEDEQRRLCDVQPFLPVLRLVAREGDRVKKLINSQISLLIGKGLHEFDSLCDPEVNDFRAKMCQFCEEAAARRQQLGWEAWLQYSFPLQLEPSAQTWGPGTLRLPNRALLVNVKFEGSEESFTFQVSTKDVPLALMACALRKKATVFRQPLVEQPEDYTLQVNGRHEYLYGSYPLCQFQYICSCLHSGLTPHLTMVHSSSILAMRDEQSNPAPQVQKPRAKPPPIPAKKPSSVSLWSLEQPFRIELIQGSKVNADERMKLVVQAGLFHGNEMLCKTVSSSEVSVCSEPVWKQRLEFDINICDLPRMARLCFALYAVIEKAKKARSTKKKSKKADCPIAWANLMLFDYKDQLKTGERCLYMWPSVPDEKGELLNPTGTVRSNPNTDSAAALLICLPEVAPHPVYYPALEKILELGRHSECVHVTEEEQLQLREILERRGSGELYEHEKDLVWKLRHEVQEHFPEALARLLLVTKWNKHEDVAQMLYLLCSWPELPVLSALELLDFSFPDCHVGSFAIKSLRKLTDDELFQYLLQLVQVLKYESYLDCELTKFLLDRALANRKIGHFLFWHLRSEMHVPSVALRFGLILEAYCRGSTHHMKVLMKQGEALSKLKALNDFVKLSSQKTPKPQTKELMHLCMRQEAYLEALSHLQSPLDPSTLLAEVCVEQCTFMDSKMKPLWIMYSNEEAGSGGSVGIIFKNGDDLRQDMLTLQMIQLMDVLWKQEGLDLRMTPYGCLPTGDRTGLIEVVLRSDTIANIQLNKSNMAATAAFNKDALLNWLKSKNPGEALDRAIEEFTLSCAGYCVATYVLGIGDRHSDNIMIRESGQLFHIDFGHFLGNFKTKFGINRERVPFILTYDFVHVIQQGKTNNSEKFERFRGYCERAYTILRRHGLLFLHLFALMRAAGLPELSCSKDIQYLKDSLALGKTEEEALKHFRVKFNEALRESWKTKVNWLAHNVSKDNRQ

[6] = target: Phosphatidylinositol 4,5-bisphosphate 3-kinase catalytic subunit alpha isoform (Homo sapiens, UniProt P42336); test: Inhibition of N-terminal His6-tagged recombinant full length human PI3Kalpha expressed in baculovirus infected Sf21 insect cells at 1 uM by HTRF assay relative to control
[7] = target: Phosphatidylinositol 4,5-bisphosphate 3-kinase catalytic subunit beta isoform (Homo sapiens, UniProt P42338); test: Inhibition of N-terminal His6-tagged recombinant full length human PI3Kbeta expressed in baculovirus infected Sf21 insect cells at 1 uM by HTRF assay relative to control
Chain of Phosphatidylinositol 4,5-bisphosphate 3-kinase catalytic subunit beta isoform (P42338 whole entry, looked up, canonical isoform): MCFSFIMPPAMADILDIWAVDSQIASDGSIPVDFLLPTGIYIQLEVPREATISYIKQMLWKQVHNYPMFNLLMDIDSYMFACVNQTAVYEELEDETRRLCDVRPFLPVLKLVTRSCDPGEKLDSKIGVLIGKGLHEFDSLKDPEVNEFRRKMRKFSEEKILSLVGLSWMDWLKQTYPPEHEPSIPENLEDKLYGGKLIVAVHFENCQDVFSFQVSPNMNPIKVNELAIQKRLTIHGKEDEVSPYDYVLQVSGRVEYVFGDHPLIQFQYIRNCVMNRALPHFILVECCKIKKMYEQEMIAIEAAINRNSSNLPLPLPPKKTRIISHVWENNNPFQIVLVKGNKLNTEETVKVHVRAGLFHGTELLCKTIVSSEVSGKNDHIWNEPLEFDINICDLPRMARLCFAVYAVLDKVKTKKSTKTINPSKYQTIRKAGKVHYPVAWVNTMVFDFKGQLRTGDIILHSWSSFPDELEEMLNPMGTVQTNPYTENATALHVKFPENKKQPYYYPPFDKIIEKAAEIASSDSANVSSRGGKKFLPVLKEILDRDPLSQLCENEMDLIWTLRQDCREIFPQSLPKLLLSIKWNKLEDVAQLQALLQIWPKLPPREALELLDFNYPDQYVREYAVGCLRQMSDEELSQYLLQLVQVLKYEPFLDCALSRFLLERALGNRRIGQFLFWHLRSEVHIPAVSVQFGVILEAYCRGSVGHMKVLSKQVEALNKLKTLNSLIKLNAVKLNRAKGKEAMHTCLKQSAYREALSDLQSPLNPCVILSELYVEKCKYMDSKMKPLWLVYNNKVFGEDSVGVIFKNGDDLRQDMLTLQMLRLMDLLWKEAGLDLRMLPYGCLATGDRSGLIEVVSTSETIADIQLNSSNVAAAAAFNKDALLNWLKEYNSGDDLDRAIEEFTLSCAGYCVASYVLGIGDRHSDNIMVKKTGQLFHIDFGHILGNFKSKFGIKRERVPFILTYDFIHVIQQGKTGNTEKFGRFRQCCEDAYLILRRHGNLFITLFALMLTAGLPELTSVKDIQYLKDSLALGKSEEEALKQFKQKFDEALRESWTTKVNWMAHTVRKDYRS

Chain of Phosphatidylinositol 4,5-bisphosphate 3-kinase catalytic subunit alpha isoform (P42336 whole entry, canonical isoform): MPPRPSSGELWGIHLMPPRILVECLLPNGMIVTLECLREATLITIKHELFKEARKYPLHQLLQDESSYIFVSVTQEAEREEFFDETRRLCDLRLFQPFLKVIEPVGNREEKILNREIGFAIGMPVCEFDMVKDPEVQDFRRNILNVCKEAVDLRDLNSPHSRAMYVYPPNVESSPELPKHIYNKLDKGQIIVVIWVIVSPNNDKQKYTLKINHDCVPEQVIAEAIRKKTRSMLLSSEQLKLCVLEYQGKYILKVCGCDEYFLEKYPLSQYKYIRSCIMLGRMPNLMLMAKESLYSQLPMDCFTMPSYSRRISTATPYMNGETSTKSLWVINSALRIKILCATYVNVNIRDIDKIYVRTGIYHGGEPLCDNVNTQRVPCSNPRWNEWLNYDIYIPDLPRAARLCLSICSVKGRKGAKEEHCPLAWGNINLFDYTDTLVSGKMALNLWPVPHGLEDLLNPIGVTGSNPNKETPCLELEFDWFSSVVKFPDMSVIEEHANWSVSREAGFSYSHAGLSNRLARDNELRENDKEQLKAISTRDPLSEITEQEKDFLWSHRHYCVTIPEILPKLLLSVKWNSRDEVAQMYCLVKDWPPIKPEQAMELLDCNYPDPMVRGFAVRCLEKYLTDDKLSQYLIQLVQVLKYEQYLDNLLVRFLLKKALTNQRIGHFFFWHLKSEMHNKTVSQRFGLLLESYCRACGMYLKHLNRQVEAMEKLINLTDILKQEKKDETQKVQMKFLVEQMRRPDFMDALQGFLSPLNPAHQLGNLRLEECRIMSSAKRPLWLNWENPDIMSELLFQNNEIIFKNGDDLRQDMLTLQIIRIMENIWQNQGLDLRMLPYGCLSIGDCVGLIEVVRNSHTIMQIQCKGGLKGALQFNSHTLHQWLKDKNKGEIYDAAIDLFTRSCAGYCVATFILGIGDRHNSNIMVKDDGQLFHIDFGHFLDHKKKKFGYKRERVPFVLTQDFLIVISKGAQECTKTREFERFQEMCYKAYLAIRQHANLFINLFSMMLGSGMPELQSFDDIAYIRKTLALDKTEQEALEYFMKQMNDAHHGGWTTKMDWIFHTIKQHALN
Chain of Phosphatidylinositol 4,5-bisphosphate 3-kinase catalytic subunit gamma isoform (P48736 whole entry, looked up, canonical isoform): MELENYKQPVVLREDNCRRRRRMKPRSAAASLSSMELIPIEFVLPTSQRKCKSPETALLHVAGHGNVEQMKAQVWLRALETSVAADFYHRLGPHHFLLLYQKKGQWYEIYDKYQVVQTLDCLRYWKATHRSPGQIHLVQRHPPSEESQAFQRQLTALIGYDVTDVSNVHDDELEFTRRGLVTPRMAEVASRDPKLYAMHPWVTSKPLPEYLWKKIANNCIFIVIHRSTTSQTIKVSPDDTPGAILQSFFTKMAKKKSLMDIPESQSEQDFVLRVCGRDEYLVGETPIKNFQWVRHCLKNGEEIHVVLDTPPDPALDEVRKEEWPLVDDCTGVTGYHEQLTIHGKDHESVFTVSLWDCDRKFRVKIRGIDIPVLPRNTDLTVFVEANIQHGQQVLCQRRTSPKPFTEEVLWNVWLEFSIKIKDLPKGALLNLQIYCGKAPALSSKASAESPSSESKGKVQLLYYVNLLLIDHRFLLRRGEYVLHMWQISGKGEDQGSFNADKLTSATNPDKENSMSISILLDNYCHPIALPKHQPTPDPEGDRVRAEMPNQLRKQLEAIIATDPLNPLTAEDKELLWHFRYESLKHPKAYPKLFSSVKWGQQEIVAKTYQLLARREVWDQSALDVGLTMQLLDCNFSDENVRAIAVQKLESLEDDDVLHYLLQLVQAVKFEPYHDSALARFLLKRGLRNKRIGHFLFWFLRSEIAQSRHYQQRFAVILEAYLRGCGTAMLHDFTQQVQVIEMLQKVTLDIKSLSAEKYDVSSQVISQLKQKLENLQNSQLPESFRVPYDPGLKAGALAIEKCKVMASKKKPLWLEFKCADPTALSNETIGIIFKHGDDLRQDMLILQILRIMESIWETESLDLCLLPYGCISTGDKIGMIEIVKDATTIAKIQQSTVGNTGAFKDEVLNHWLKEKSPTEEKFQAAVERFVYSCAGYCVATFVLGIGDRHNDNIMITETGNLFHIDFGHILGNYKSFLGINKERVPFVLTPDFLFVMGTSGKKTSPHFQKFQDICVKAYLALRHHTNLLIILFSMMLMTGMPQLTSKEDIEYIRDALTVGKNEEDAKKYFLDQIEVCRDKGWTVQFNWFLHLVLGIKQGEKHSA

inhibition [1] | IC50 [3] | inhibition [5] | inhibition [6] | inhibition [7] | SMILES | IC50 [2] | IC50 [4]
49% | 520 nM | 5% | -2% | 15% | C[C@H]1CC[C@@H](c2nc3cccc(C#Cc4ccsc4)c3c(=O)n2-c2ccccc2)N1c1nc(N)nc(N)c1C#N | 650 nM | 540 nM
41% | 700 nM |  | 5% | 44% | COc1ccc(-c2cccc3nc([C@@H]4CC[C@H](C)N4c4nc(N)nc(N)c4C#N)n(-c4ccccc4)c(=O)c23)cc1 | 1140 nM | 890 nM
67% | 400 nM | 7% | 44% | 36% | C[C@H]1CC[C@@H](c2nc3cccc(F)c3c(=O)n2-c2cccnc2)N1c1nc(N)nc(N)c1C#N | 560 nM | 120 nM
23% | 150 nM | 8% | 10% | 54% | COc1cncc(-c2cccc3nc([C@@H]4CC[C@H](C)N4c4nc(N)nc(N)c4C#N)n(-c4cccnc4)c(=O)c23)c1 | 810 nM | 590 nM
83% | 2620 nM | 64% | 35% | 69% | Cc1cccc(C#Cc2cccc3nc([C@@H]4CC[C@H](C)N4c4nc(N)nc(N)c4C#N)n(-c4ccccc4)c(=O)c23)c1 | 4130 nM | 3310 nM
20% | 470 nM |  | 26% | 46% | C[C@H]1CC[C@@H](c2nc3cccc(-c4cnn(C(F)F)c4)c3c(=O)n2-c2ccccc2)N1c1nc(N)nc(N)c1C#N | 670 nM | 330 nM
29% | 250 nM | 16% | 25% | 59% | C[C@H]1CC[C@@H](c2nc3cccc(-c4cnn(C5CC5)c4)c3c(=O)n2-c2cccc(F)c2)N1c1nc(N)nc(N)c1C#N | 970 nM | 660 nM
40% | 400 nM | -3% | 22% | 11% | C[C@H]1CC[C@@H](c2nc3cccc(C#Cc4ccccc4)c3c(=O)n2-c2ccccc2)N1c1nc(N)nc(N)c1C#N | 1840 nM | 670 nM
52% | 920 nM | 6% | 30% | 23% | C[C@H]1CC[C@@H](c2nc3c(F)cccc3c(=O)n2-c2cccnc2)N1c1nc(N)nc(N)c1C#N | 440 nM | 620 nM
89% | 770 nM | 89% | 56% | 100% | C[C@H]1CC[C@@H](c2nc3ccc(Cl)cc3c(=O)n2-c2cccnc2)N1c1nc(N)nc(N)c1C#N | 1050 nM | 900 nM
34% | 480 nM | 21% | 31% | 63% | C[C@H]1CC[C@@H](c2nc3cccc(-c4cnn(C5CC5)c4)c3c(=O)n2-c2cccnc2)N1c1nc(N)nc(N)c1C#N | 2130 nM | 700 nM
 | 390 nM |  |  |  | C[C@H](Nc1ncnc2nc[nH]c12)c1cc2cccc(Cl)c2c(=O)n1-c1ccccc1 [DUVELISIB] | 200 nM | 270 nM
29% | 390 nM |  | 14% | 77% | COc1ccc(-c2cccc3nc([C@@H]4CC[C@H](C)N4c4nc(N)nc(N)c4C#N)n(-c4ccccc4)c(=O)c23)cn1 | 630 nM | 600 nM
57% | 290 nM |  | 26% | 49% | C[C@H]1CC[C@@H](c2nc3cccc(-c4cncnc4)c3c(=O)n2-c2ccccc2)N1c1nc(N)nc(N)c1C#N | 1940 nM | 320 nM
